Structures are written as SMILES.

Series [1] deals with Human B Lymphocyte cell line, SU-DHL-8. Description: Relative cell viability CCK-8, SU-DHL-8. In kind it is cell-based. The settings on record: 48 hours, untreated (DMSO) = 100%; for viability at 1 µM / viability at 10 µM / viability at 30 µM / viability at 50 µM: Homo sapiens, SU-DHL-8, 48 h; for viability at 1 µM: read-out: Relative cell viability (%), SU-DHL-8, 1 μM; for viability at 10 µM: read-out: Relative cell viability (%), SU-DHL-8, 10 μM; for viability at 30 µM: read-out: Relative cell viability (%), SU-DHL-8, 30 μM; for viability at 50 µM: read-out: Relative cell viability (%), SU-DHL-8, 50 μM. The protocol: Human-derived B lymphoma cell line SU-DHL-8 (Cat. #CRL-2961) purchased from ATCC was cultured in RPMI-1640 medium containing 10% FBS, 100 U/mL penicillin, and 100 μg/mL streptomycin.
The cell culture medium was then harvested, centrifuged at 1,300 rpm for 5 minutes, and the supernatant was removed. The cells were resuspended in the same medium and dispensed into a 96-well plate (Costar 96-well cell culture plate, Corning) at 90 μL per well, resulting in the conditions specified in Table 5.
Then, 10 μL of CCK-8 was added to each well, and the plates were incubated again at 37° C. in a 5% CO2 incubator for 4 hours.
In other words, when the survival rate of untreated cells (DMSO) is set at 100%, the relative cell survival rate in each group treated with the drug at different concentrations is indicated.

Series [2] relates to T cells isolated from mouse spleens. Description: T cell proliferation inhibition (CFSE flow cytometry, anti-CD3/anti-CD28 stimulation). In kind it is cell-based. The note with it: mouse spleen T cells, 3 days; for inhibition at 0.01 µM / inhibition at 0.1 µM / inhibition at 1 µM / inhibition at 10 µM / inhibition at 30 µM / inhibition at 50 µM: Mus musculus, T-cell, 72 h, read-out: Proliferation inhibition rate (%). Summed up: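 Proliferation inhibition (%) came from flow cytometry of CFSE dilution after 3 days' culture at 37 °C with compound (10 nM, 100 nM, 1, 10, 30, 50 μM; triplicate wells). Cells were magnetically purified T cells from C57BL/6 mouse spleens, 2×10^5 per well, stimulated with 0.5 μg/mL each anti-CD3 and anti-CD28.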

As to `CN1CCN(CCCCCCCCCCCCNC(=O)c2cccnc2F)CC1` [Compound 121, 2-fluoro-N-(12-(4-methylpiperazin-1-yl)dodecyl) nicotinamide], the “Relative cell viability (%), SU-DHL-8” value in series [1] (1 μM) is given as 34.89%; in series [1] (10 μM), 28.99%; in series [1] (30 μM), 29.04%; in series [1] (50 μM) it was 31.11%. Further, the “Proliferation inhibition rate (%)” value is reported as 0.00% in series [2] (compound 10 nM); 0.00% in series [2] (compound 100 nM); 0.00% in series [2] (compound 1 μM); 30.00% in series [2] (compound 10 μM); 100.00% in series [2] (compound 30 μM); 100.00% in series [2] (compound 50 μM).

As usually defined, the viability is the share of living cells, or the viability signal relative to a control. With `Nc1ccncc1C(=O)NCCCCCCCCCCCCF` [Compound 73, 4-Amino-N-(12-fluoro-dodecyl)-nicotinamide], in series [1], the viability at 1 µM turned out to be 11.9%, the viability at 10 µM is 5.03%, the viability at 30 µM was 0.98% and the viability at 50 µM is 0.91%. The inhibition at 0.01 µM in series [2] (compound 10 nM) is -6.44%. Besides, in series [2] (compound 100 nM), the inhibition at 0.1 µM was determined as 5.75%. Further, in series [2] (compound 1 μM), the inhibition at 1 µM was 7.4%. Also, in series [2] (compound 10 μM), the inhibition at 10 µM stood at 84.8%. Further, the inhibition at 30 µM in series [2] (compound 30 μM) came out at 100%. Further, the inhibition at 50 µM in series [2] (compound 50 μM) worked out at 100%.

`CC(C)CN1CCN(CCCCCCCCCCCCC(=O)Nc2nc(N)c3[nH]cnc3n2)CC1` [Compound 6, 12-[4-(2-methylpropyl)piperazin-1-yl]dodecyl-N-(6-aminopurine-2-yl) carboxamide]: in series [1], the viability at 1 µM was found to be 7.83%, the viability at 10 µM worked out at 6.39%, the viability at 30 µM is 4.66% and the viability at 50 µM was 3.94%. For the same compound, in series [2] (compound 10 nM), the inhibition at 0.01 µM is -18.5%. Besides, the inhibition at 0.1 µM in series [2] (compound 100 nM) came out at 100%. In addition, the inhibition at 1 µM in series [2] (compound 1 μM) amounted to 100%. The inhibition at 10 µM in series [2] (compound 10 μM) came out at 100%. For the same compound, the inhibition at 30 µM in series [2] (compound 30 μM) was found to be 100%. In addition, in series [2] (compound 50 μM), the inhibition at 50 µM came to 100%.

In the case of `COc1cc2c(cc1OC)CN(CCCCCCCCCCCCNC(=O)c1cccnc1N)CC2` [Compound 125, 2-Amino-N-(12-(6,7-dimethoxy-3,4-dihydroisoquinolin-2 (1H)-yl)dodecyl)nicotinamide], in series [1], the viability at 1 µM came out at 42%, the viability at 10 µM stood at 42.6%, the viability at 30 µM worked out at 42% and the viability at 50 µM was found to be 42.7%. For the same compound, in series [2] (compound 10 nM), the inhibition at 0.01 µM is -4.48%. Besides, the inhibition at 0.1 µM in series [2] (compound 100 nM) worked out at 100%. In addition, the inhibition at 1 µM in series [2] (compound 1 μM) came to 100%. Further, in series [2] (compound 10 μM), the inhibition at 10 µM came to 100%. Further, the inhibition at 30 µM in series [2] (compound 30 μM) turned out to be 100%. Moreover, the inhibition at 50 µM in series [2] (compound 50 μM) turned out to be 100%.

Consider `Nc1ncccc1C(=O)NCCCCCCCCF` [Compound 61, 2-Amino-N-(8-fluoro-octyl)-nicotinamide], for which, in series [1], the viability at 1 µM worked out at 48.8%, the viability at 10 µM turned out to be 36.4%, the viability at 30 µM was 42% and the viability at 50 µM was found to be 21%. In addition, the inhibition at 0.01 µM in series [2] (compound 10 nM) is -10.2%. The inhibition at 0.1 µM in series [2] (compound 100 nM) was -6.37%. Also, the inhibition at 1 µM in series [2] (compound 1 μM) was -5.75%. Further, the inhibition at 10 µM in series [2] (compound 10 μM) was found to be 34.9%. Also, in series [2] (compound 30 μM), the inhibition at 30 µM came out at 85.4%. Also, in series [2] (compound 50 μM), the inhibition at 50 µM was 93.2%.

For the compound `Nc1nc(NC(=O)CCCCCCCCCCCCN2CCC(O)CC2)nc2nc[nH]c12` [Compound 9, 12-(4-hydroxypiperidin-1-yl)dodecyl-N-(6-aminopurine-2-yl) carboxamide], in series [1], the viability at 1 µM is 5.32%, the viability at 10 µM was found to be 4.19%, the viability at 30 µM was 3.36% and the viability at 50 µM is 3.14%. Besides, the inhibition at 1 µM in series [2] (compound 1 μM) was 100%. In addition, in series [2] (compound 10 μM), the inhibition at 10 µM is 100%. In addition, the inhibition at 30 µM in series [2] (compound 30 μM) is 100%. Further, the inhibition at 50 µM in series [2] (compound 50 μM) is 100%. In addition, in series [2] (compound 10 nM, listed as GO83, 0.01 µM), the “Proliferation inhibition rate (%)” value is 38.33%.

Take `Nc1ncccc1C(=O)NCCCCCCCCCCCCN1CCN(Cc2ccc(F)cc2)CC1` [Compound 27, 2-Amino-N-(12-(4-(4-fluorobenzyl)piperazin-1-yl)dodecyl)nicotinamide]: in series [1], the viability at 1 µM was found to be 6.24%, the viability at 10 µM was found to be 4.97%, the viability at 30 µM was determined as 2.03% and the viability at 50 µM was found to be 0.56%. In addition, the inhibition at 0.01 µM in series [2] (compound 10 nM) came out at 2.27%. In addition, the inhibition at 0.1 µM in series [2] (compound 100 nM) was determined as 83.3%. In addition, the inhibition at 1 µM in series [2] (compound 1 μM) is 100%. Besides, the inhibition at 10 µM in series [2] (compound 10 μM) was determined as 100%. Besides, in series [2] (compound 30 μM), the inhibition at 30 µM amounted to 100%. The inhibition at 50 µM in series [2] (compound 50 μM) was found to be 100%.

Take `Nc1ncccc1C(=O)NCCCCCCCCCCCCN1CC=CC1` [Compound 129, 2-amino-N-(12-(2,5-dihydro-1H-pyrrol-1-yl)dodecyl) nicotinamide]: the “Relative cell viability (%), SU-DHL-8” value was determined as 34.26% in series [1] (1 μM), 33.99% in series [1] (10 μM), 35.05% in series [1] (30 μM) and 34.27% in series [1] (50 μM). Also, the “Proliferation inhibition rate (%)” value in series [2] (compound 10 nM) is 0.00%; in series [2] (compound 100 nM) it was 90.00%; in series [2] (compound 1 μM) it was 100.00%; in series [2] (compound 10 μM) it was 100.00%; in series [2] (compound 30 μM), 100.00%; in series [2] (compound 50 μM) it was 100.00%.

As to `Cc1nnc(C)n1CCCCCCCCCCCCNC(=O)c1cccnc1N` [Compound 56, 2-Amino-N-(12-(3,5-dimethyl-4H-1,2,4-triazol-4-yl)dodecyl)nicotinamide], in series [1], the viability at 1 µM is 32.4%, the viability at 10 µM was 19.6%, the viability at 30 µM was determined as 11.2% and the viability at 50 µM amounted to 0%. Moreover, in series [2] (compound 10 nM), the inhibition at 0.01 µM is -2.51%. In series [2] (compound 100 nM), the inhibition at 0.1 µM was determined as 2.91%. Moreover, the inhibition at 1 µM in series [2] (compound 1 μM) came to 81.1%. The inhibition at 10 µM in series [2] (compound 10 μM) came out at 100%. The inhibition at 30 µM in series [2] (compound 30 μM) was 100%. Also, the inhibition at 50 µM in series [2] (compound 50 μM) was found to be 100%.

For the compound `Nc1ncccc1C(=O)NCCCCCCCCCCCCN1CCSCC1` [Compound 4, 2-Amino-N-(12-thio-morpholin-4-yl-dodecyl)-nicotinamide], in series [1], the viability at 1 µM stood at 7.58%, the viability at 10 µM was 5.49%, the viability at 30 µM came to 4.68% and the viability at 50 µM was 4.45%. Also, the inhibition at 0.01 µM in series [2] (compound 10 nM) came out at 2.7%. In addition, the inhibition at 0.1 µM in series [2] (compound 100 nM) came out at 100%. Moreover, the inhibition at 1 µM in series [2] (compound 1 μM) was 100%. Also, the inhibition at 10 µM in series [2] (compound 10 μM) is 100%. For the same compound, in series [2] (compound 30 μM), the inhibition at 30 µM is 100%. The inhibition at 50 µM in series [2] (compound 50 μM) was found to be 100%.

As for `CN(C)CCN1CCN(CCCCCCCCCCCCNC(=O)c2cccnc2N)CC1` [Compound 33, 2-Amino-N-(12-(4-(2-(dimethylamino)ethyl)piperazin-1-yl)dodecyl)nicotinamide], in series [1], the viability at 1 µM worked out at 10.1%, the viability at 10 µM was 4.32%, the viability at 30 µM came to 3.35% and the viability at 50 µM turned out to be 2.66%. For the same compound, the inhibition at 0.01 µM in series [2] (compound 10 nM) was -36%. Further, the inhibition at 0.1 µM in series [2] (compound 100 nM) was found to be 100%. Besides, the inhibition at 1 µM in series [2] (compound 1 μM) amounted to 100%. The inhibition at 10 µM in series [2] (compound 10 μM) is 100%. Besides, the inhibition at 30 µM in series [2] (compound 30 μM) came to 100%. Further, the inhibition at 50 µM in series [2] (compound 50 μM) came out at 100%.

For the compound `Nc1ncccc1C(=O)NCCCCCCCCCCN1CCOCC1` [Compound 63, 2-Amino-N-(10-morpholin-4-yl-decyl)-nicotinamide], in series [1], the viability at 1 µM stood at 33%, the viability at 10 µM worked out at 29.8%, the viability at 30 µM was determined as 29.1% and the viability at 50 µM came to 27.9%. Besides, the inhibition at 0.01 µM in series [2] (compound 10 nM) is -9.84%. The inhibition at 0.1 µM in series [2] (compound 100 nM) is 4.85%. The inhibition at 1 µM in series [2] (compound 1 μM) was determined as 11.2%. In series [2] (compound 10 μM), the inhibition at 10 µM is 100%. In addition, the inhibition at 30 µM in series [2] (compound 30 μM) was 100%. For the same compound, the inhibition at 50 µM in series [2] (compound 50 μM) amounted to 100%.

For the origin of these results see patent US20260183274A1, “PDK1 REGULATORY COMPOUND AND COMPOSITION CONTAINING THE SAME” (PROVIBIO CO., LTD., priority 2024, published 2026).
